Test results reported in US20240156861A1, “Cisplatin particles and uses thereof” (CRITITECH, INC., priority 2022, published 2024).
Values joined by “and” are separate entries in the source; they are usually repeats but may differ in a detail not shown here. Equal values may be shown once.

Key:
Type in all cases: in vivo, female athymic nude mice
[1] = system: H69 human lung carcinoma xenograft; assay: Tumor-site tissue platinum concentrations and PK parameters by ICP-MS in H69 xenograft mice;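 on Individual Tumor-Site Tissue Platinum Concentrations: unit μg/g tissue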;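 on Mean Tumor-Site Tissue Platinum Concentrations: unit μg/g tissue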
Experimental: (§1) A total of 130 female athymic nude mice bearing the H69 human lung carcinoma xenograft were assigned to 10 treatment groups. Group 1 (N=5 females) served as the no treatment control. All intratumoral (IT) injections were delivered as single 25 μL injections. […] The maximum concentration of cisplatin solution and LSAM-Cisplatin suspension is 1 mg/mL and 10 mg/mL, respectively. The IT maximum feasible dose (MFD) for cisplatin solution is 25 μg and 250 μg for LSAM-Cisplatin suspension. Group 2 (N=10 females) was administered 47.5% ethanol/47.5% glycerin/5% water IT on Study Days 1 and 16 and served as control. Group 3 (N=20 females) received 133 μg cisplatin intraperitoneal (IP), considered the standard of care (SOC), once weekly for 3 cycles (Days 1, 8, and 15. Group 4 (N=5) was administered a single 125 μg large surface area microparticle (LSAM)-Cisplatin IT injection on Day 1. Group 5 (N=5 females) received a single 187.5 μg LSAM-Cisplatin IT injection on Day 1. Group 6 (N=5 females) was administered a single 250 μg LSAM-Cisplatin IT injection on Day 1. Group 7 (N=20 females) received single 25 μg cisplatin IT injections on Days 1 and 16. Group 8 (N=20 females) received single 125 μg LSAM-Cisplatin IT injections on Days 1 and 16. Group 9 (N=20 females) received single 187.5 μg LSAM-Cisplatin IT injections on Days 1 and 16. Group 10 (N=20 females) received single 250 μg LSAM-Cisplatin IT injections on Days 1 and 16. One hour postdose on Day 1, blood and tumor tissue were collected for determination of platinum concentrations from 3 Group 2 females and 5 females from Groups 3 and 7-10. On Days 8, 16 (predose) and 28, blood and tumor tissue were collected for determination of platinum concentrations from 5 females/Study Day from Groups 3 and 7-10. Total platinum concentrations in blood and tumor tissues were determined by inductively coupled plasma mass spectrometry (ICP-MS).
(§2) The LSAM-Cisplatin pharmacology study was conducted to: • Quantitate platinum content in whole blood and tumors to animals administered cisplatin IP (standard of care, SOC), the MFD of IT cisplatin, and IT LSAM- Cisplatin at the maximum feasible dose (MFD) and two lower doses • Evaluate tumor response • Evaluate increased doses of IT LSAM-Cisplatin up to 2X systemic maximum tolerated dose (MTD) • Evaluate one vs two injections • Evaluate recurrences if tumors regressed
(§3) Blood and tumor-site tissue were collected from each treatment group according to Table 4.
(§4) All blood and tumor-site tissue platinum concentrations that were reported as BLQ were considered as zero for statistical purposes. Mean and standard deviation are the only statistics reported for blood and tumor-site tissue platinum concentrations and platinum blood to tumor tissue ratios. Composite maximum observed concentration (Cmax), time of Cmax (Tmax), and area under the concentration-time curve (AUC) values for platinum in blood and tumor tissue following single and repeated administration of cisplatin or LSAM-Cisplatin are reported.

[2] = Platinum blood to tumor-site tissue concentration ratios in H69 xenograft mice; details: for Individual platinum blood to tumor-site tissue concentration ratio: individual animals
Experimental: as §1, §4
Platinum Cmax, Tmax, and AUC values for single-dose blood and tumor-site tissue data are provided in Table 8 and Table 9, respectively. Platinum Cmax, Tmax, and AUC values for multi-dose blood and tumor-site tissue data are provided in Table 10 and Table 11, respectively. Mean single-dose blood platinum concentrations are plotted in FIG. 20. Mean single-dose tumor-site tissue platinum concentrations are plotted in FIG. 21. Mean multiple-dose blood platinum concentration data are plotted in FIG. 22. Mean multiple-dose tumor-site tissue platinum concentration data are plotted in FIG. 23.

[3] = Blood platinum concentrations and PK parameters by ICP-MS in H69 xenograft mice
Experimental: as §1, §2, §3, §4

[4] = Group 3: 6 mg/kg IP on Days 1, 8, 15, Day 1 (1 hour postdose)
[5] = Group 3: 6 mg/kg IP on Days 1, 8, 15, Day 1 (1 hour postdose), 6 mg/kg
[6] = Group 3: 6 mg/kg IP on Days 1, 8, 15, Day 8 (pre-dose)
[7] = Group 3: 6 mg/kg IP on Days 1, 8, 15, Day 16
[8] = Group 3: 6 mg/kg IP on Days 1, 8, 15, Day 16, 6 mg/kg
[9] = Group 3: 6 mg/kg IP on Days 1, 8, 15, Day 28
[10] = Group 3: 6 mg/kg IP on Days 1, 8, 15, Day 28, 6 mg/kg
[11] = multiple doses, 6 mg/kg IP on Days 1, 8, and 15
[12] = multiple doses, ~1.1 mg/kg IT on Days 1 and 16
[13] = single dose Day 1, ~1.1 mg/kg IT

N.N.[Cl][Pt][Cl] [Cisplatin]
Mean Tumor-Site Tissue Platinum Concentrations [1, 4]: 0.734 µg/g
Individual Tumor-Site Tissue Platinum Concentrations [1, 5]: 0.901 μg/g and BLQ (below the limit of quantitation (<0.650 μg/g) and treated as zero for statistical purposes) and 1.15 μg/g and 0.777 μg/g and 0.843 μg/g
Individual Tumor-Site Tissue Platinum Concentrations [1, 6]: BLQ (below the limit of quantitation (<0.650 μg/g) and treated as zero for statistical purposes)
Mean Tumor-Site Tissue Platinum Concentrations ([1]; Group 3: 6 mg/kg IP on Days 1, 8, 15, Day 8 (pre-dose), BLQ treated as zero): 0.00 µg/g
Mean Tumor-Site Tissue Platinum Concentrations [1, 7]: 1.39 µg/g
Individual Tumor-Site Tissue Platinum Concentrations [1, 8]: 0.753 µg/g and 1.17 µg/g and 1.27 µg/g and 2.62 µg/g and 1.12 µg/g
Mean Tumor-Site Tissue Platinum Concentrations [1, 9]: 0.459 µg/g
Individual Tumor-Site Tissue Platinum Concentrations [1, 10]: BLQ (below the limit of quantitation (<0.650 μg/g) and treated as zero for statistical purposes) (3×) and 0.933 μg/g and 1.36 μg/g
Mean Tumor-Site Tissue Platinum Concentrations ([1]; Group 7: 1.1 mg/kg IT on Days 1 and 16, Day 1 (1 hour postdose)): 11.3 µg/g
Individual Tumor-Site Tissue Platinum Concentrations ([1]; Group 7: 1.1 mg/kg IT on Days 1 and 16, Day 1 (1 hour postdose), 1.1 mg/kg): 14.4 µg/g and 13.2 µg/g and 9.66 µg/g and 8.68 µg/g and 10.4 µg/g
Mean Tumor-Site Tissue Platinum Concentrations ([1]; Group 7: 1.1 mg/kg IT on Days 1 and 16, Day 8): 3.23 µg/g
Individual Tumor-Site Tissue Platinum Concentrations ([1]; Group 7: 1.1 mg/kg IT on Days 1 and 16, Day 8, 1.1 mg/kg): 3.06 µg/g and 4.74 µg/g and 4.29 µg/g and 3.02 µg/g and 1.06 µg/g
Mean Tumor-Site Tissue Platinum Concentrations ([1]; Group 7: 1.1 mg/kg IT on Days 1 and 16, Day 16 (predose)): 2.97 µg/g
Individual Tumor-Site Tissue Platinum Concentrations ([1]; Group 7: 1.1 mg/kg IT on Days 1 and 16, Day 16 (predose), 1.1 mg/kg): 1.90 μg/g and 2.42 μg/g and 7.79 μg/g and 2.76 μg/g and BLQ (below the limit of quantitation (<0.650 μg/g) and treated as zero for statistical purposes)
Mean Tumor-Site Tissue Platinum Concentrations ([1]; Group 7: 1.1 mg/kg IT on Days 1 and 16, Day 28): 9.11 µg/g
Individual Tumor-Site Tissue Platinum Concentrations ([1]; Group 7: 1.1 mg/kg IT on Days 1 and 16, Day 28, 1.1 mg/kg): 20.2 µg/g and 8.89 µg/g and 6.35 µg/g and 7.97 µg/g and 2.16 µg/g
Tumor-Site Tissue Platinum AUC0-t [1, 11]: 470 µg·h/g
Tumor-Site Tissue Platinum Tmax [1, 11]: 384 h
Tumor-Site Tissue Platinum AUC0-t [1, 12]: 3,728 μg · hr/g
Tumor-Site Tissue Platinum Tmax [1, 12]: 1 h
Tumor-Site Tissue Platinum AUC0-192 ([1]; single dose Day 1, 6 mg/kg IP): 70.5 µg·h/g
Tumor-Site Tissue Platinum Tmax ([1]; single dose Day 1, 6 mg/kg IP): 1 h
Tumor-Site Tissue Platinum AUC0-192 [1, 13]: 1,393 μg · hr/g
Tumor-Site Tissue Platinum AUC0-384 [1, 13]: 1,988 μg · hr/g
Tumor-Site Tissue Platinum Tmax [1, 13]: 1 h
mean Day 28 tumor-site tissue platinum concentrations, IT versus IP ([1]; ~1.1 mg/kg IT Days 1 and 16 versus 6 mg/kg IP Days 1, 8, 15): greater than following IP administration
Individual platinum blood to tumor-site tissue concentration ratio ([2]; Group 3, 6 mg/kg cisplatin IP on Days 1, 8, and 15, sampling Day 1): 1.084 and 0.775 and 0.134 and 0.994
Mean platinum blood to tumor-site tissue concentration ratio ([2]; Group 3, 6 mg/kg cisplatin IP on Days 1, 8, and 15, sampling Day 1, N=4): 0.747
Individual platinum blood to tumor-site tissue concentration ratio ([2]; Group 3, 6 mg/kg cisplatin IP on Days 1, 8, and 15, sampling Day 16): 1.174 and 1.120 and 1.000 and 0.424 and 1.188
Mean platinum blood to tumor-site tissue concentration ratio ([2]; Group 3, 6 mg/kg cisplatin IP on Days 1, 8, and 15, sampling Day 16, N=5): 0.981
Individual platinum blood to tumor-site tissue concentration ratio ([2]; Group 3, 6 mg/kg cisplatin IP on Days 1, 8, and 15, sampling Day 28): 0.506 and 0.267
Mean platinum blood to tumor-site tissue concentration ratio ([2]; Group 3, 6 mg/kg cisplatin IP on Days 1, 8, and 15, sampling Day 28, N=2): 0.386
Individual platinum blood to tumor-site tissue concentration ratio ([2]; Group 7, ~1.1 mg/kg cisplatin IT on Days 1 and 16, sampling Day 1, 1.1 mg/kg): 0.011 and 0.018 and 0.019 and 0.022 and 0.016
Mean platinum blood to tumor-site tissue concentration ratio ([2]; Group 7, ~1.1 mg/kg cisplatin IT on Days 1 and 16, sampling Day 1, N=5): 0.017
Individual platinum blood to tumor-site tissue concentration ratio ([2]; Group 7, ~1.1 mg/kg cisplatin IT on Days 1 and 16, sampling Day 8, 1.1 mg/kg): 0.023 and 0.000 and 0.020 and 0.026 and 0.053
Mean platinum blood to tumor-site tissue concentration ratio ([2]; Group 7, ~1.1 mg/kg cisplatin IT on Days 1 and 16, sampling Day 8, N=5): 0.024
Individual platinum blood to tumor-site tissue concentration ratio ([2]; Group 7, ~1.1 mg/kg cisplatin IT on Days 1 and 16, sampling Day 16, 1.1 mg/kg): 0.000 (3×) and 0.023
Mean platinum blood to tumor-site tissue concentration ratio ([2]; Group 7, ~1.1 mg/kg cisplatin IT on Days 1 and 16, sampling Day 16, N=4): 0.006
Individual platinum blood to tumor-site tissue concentration ratio ([2]; Group 7, ~1.1 mg/kg cisplatin IT on Days 1 and 16, sampling Day 28, 1.1 mg/kg): 0.003 and 0.008 and 0.009 and 0.007 and 0.025
Mean platinum blood to tumor-site tissue concentration ratio ([2]; Group 7, ~1.1 mg/kg cisplatin IT on Days 1 and 16, sampling Day 28, N=5): 0.010
systemic exposure to platinum based on mean blood to tumor-site tissue ratios ([2]; repeated IT administration of 1.1 mg/kg): negligible
Day 28 blood platinum concentrations, IP versus IT ([3]; 6 mg/kg IP (SOC) versus ~1.1 mg/kg IT Days 1 and 16): higher
Mean Blood Platinum Concentrations [3, 4]: 793 ng/mL
Individual Blood Platinum Concentrations [3, 5]: 977 ng/mL and 221 ng/mL and 891 ng/mL and 1040 ng/mL and 838 ng/mL
Mean Blood Platinum Concentrations [3, 6]: 368 ng/mL
Individual Blood Platinum Concentrations ([3]; Group 3: 6 mg/kg IP on Days 1, 8, 15, Day 8 (pre-dose), 6 mg/kg): 441 ng/mL and 304 ng/mL and 428 ng/mL and 241 ng/mL and 426 ng/mL
Mean Blood Platinum Concentrations [3, 7]: 1180 ng/mL
Individual Blood Platinum Concentrations [3, 8]: 884 ng/mL and 1310 ng/mL and 1270 ng/mL and 1110 ng/mL and 1330 ng/mL
Mean Blood Platinum Concentrations [3, 9]: 396 ng/mL
Individual Blood Platinum Concentrations [3, 10]: 493 ng/mL and 472 ng/mL and 363 ng/mL and 188 ng/mL and 465 ng/mL
Mean Blood Platinum Concentrations ([3]; Group 7: ~1.1 mg/kg IT on Days 1 and 16, Day 1 (1 hour postdose)): 189 ng/mL
Individual Blood Platinum Concentrations ([3]; Group 7: ~1.1 mg/kg IT on Days 1 and 16, Day 1 (1 hour postdose), 1.1 mg/kg): 160 ng/mL and 242 ng/mL and 181 ng/mL and 193 ng/mL and 171 ng/mL
Mean Blood Platinum Concentrations ([3]; Group 7: ~1.1 mg/kg IT on Days 1 and 16, Day 8): 57.6 ng/mL
Individual Blood Platinum Concentrations ([3]; Group 7: ~1.1 mg/kg IT on Days 1 and 16, Day 8, 1.1 mg/kg): 69.9 ng/mL and BLQ (below the limit of quantitation (<50 ng/mL) and treated as zero for statistical purposes) and 86.7 ng/mL and 79 ng/mL and 52.6 ng/mL
Mean Blood Platinum Concentrations ([3]; Group 7: ~1.1 mg/kg IT on Days 1 and 16, Day 16 (predose)): 11.4 ng/mL
Individual Blood Platinum Concentrations ([3]; Group 7: ~1.1 mg/kg IT on Days 1 and 16, Day 16 (predose), 1.1 mg/kg): BLQ (below the limit of quantitation (<50 ng/mL) and treated as zero for statistical purposes) (4×) and 56.8 ng/mL
Mean Blood Platinum Concentrations ([3]; Group 7: ~1.1 mg/kg IT on Days 1 and 16, Day 28): 61.1 ng/mL
Individual Blood Platinum Concentrations ([3]; Group 7: ~1.1 mg/kg IT on Days 1 and 16, Day 28, 1.1 mg/kg): 68.1 ng/mL and 68.3 ng/mL and 57.8 ng/mL and 57.4 ng/mL and 53.8 ng/mL
Blood Platinum AUC0-t [3, 11]: 486,824 ng · hr/mL
Blood Platinum Cmax [3, 11]: 1.18 µg/mL
Blood Platinum Tmax [3, 11]: 384 h
Blood Platinum AUC0-t [3, 12]: 40,709 ng · hr/mL
Blood Platinum Cmax [3, 12]: 0.189 µg/mL
Blood Platinum Tmax [3, 12]: 1 h
Blood Platinum AUC0-192 ([3]; single dose Day 1, 6 mg/kg IP): 111,272 ng · hr/mL
Blood Platinum Cmax ([3]; single dose Day 1, 6 mg/kg IP): 0.793 µg/mL
Blood Platinum Tmax ([3]; single dose Day 1, 6 mg/kg IP): 1 h
Blood Platinum AUC0-192 [3, 13]: 23,645 ng · hr/mL
Blood Platinum AUC0-384 [3, 13]: 30,269 ng · hr/mL
Blood Platinum Cmax [3, 13]: 0.189 µg/mL
Blood Platinum Tmax [3, 13]: 1 h
